Data from patent US11077035B2, “Hair treatment compositions and methods” (SYTHEON LIMITED, priority 2017, dated 2021).

Tests used:
[1] = Chelation study 2C: Fe^2+ chelation; details: for % Remaining of FL (20 min) / % Remaining of FL (40 min) / % Remaining of FL (80 min): Fe^2+ ions 200 μM
[2] = Singlet oxygen quenching; type: biochemical
Excerpt: The first study evaluated the quenching ability of the aryl alkanones versus αTocopherol. The test methodology employed is the method of W. Mullen et al., J of Agriculture & Food Chemistry, 59(9):3754-3762, 2011).

[3] = for change in fluorescence decay pattern with and without ten-fold excess of CaCl2 (selectivity Cu^2+ over Ca^2+): comparison of studies 2A and 2B; for Cu^2+ chelation capability, in words: with CaCl2 (study 2A)
Method: Food Chem: 50(10); 2772-2777, 2002
The first chelation study (2A) evaluated the Cu^2+ chelation capability of the test and comparative chelators in the presence of excess Ca^2+. Here, a Fenton reaction was initiated with a mixture of Cu^2+, CaCl2 and hydrogen peroxide at alkaline condition, the mixture comprising [CuCl2]=200 μM, [H2O2]=0.055 μM, [CaCl2]2.3 mM, and [FL]=6.20×10^−8 M. The test compounds were evaluated at a concentration of 600 μM for each of Compounds 1D, 1E and 1F and Deferiprone (a 3 molar excess) and 200 μM for each of EDDS and EDTA.

[4] = Stability under singlet oxygen environment (HPLC); type: physicochemical
Method: A second study was performed to determine the stability of the aryl alkanones and α tocopherol under a singlet oxygen environment. In this study, 5 ml of 1 mg/ml solution of each test compound (in DMSO) was mixed with 5 ml of a solution (pH 5) containing 0.16 mg/ml lithium molybdate, 4 ml 0.01 M NaOH, and 5 ml of 0.015% H2O2. 500 μl from each mixture was taken every 2 mins and added to 1 ml of 1 mg/ml curcumin solution (in DMSO) to stop the reaction. The mixture was then injected into an HPLC to monitor product degradation.

[5] = Chelation study 2D: Fe^3+ chelation; details: for % Remaining of FL (20 min) / % Remaining of FL (40 min) / % Remaining of FL (80 min): Fe^3+ ions; for Fe^3+ chelation capability, in words: study 2D

% Remaining of FL (20 min) [1] [%] | % Remaining of FL (40 min) [1] [%] | % Remaining of FL (80 min) [1] [%] | SMILES | Antioxidant Power against singlet oxygen [2] | change in fluorescence decay pattern with and without ten-fold excess of CaCl2 (selectivity Cu^2+ over Ca^2+) [3] | Cu^2+ chelation capability, in words [3] | Fe^3+ chelation capability, in words [5] | further results
98.3 | 98.3 | 98.3 | COc1ccc(CC(C(C)=O)C(C)=O)cc1OC [Compound 1D, 3-(3,4-dimethoxybenzyl)-2,4-pentanedione] | 4,590 μmole Trolox equivalent/g | very little change | almost completely chelated |  | 
99.6 | 99.2 | 99.2 | COc1ccc(CC(C(C)=O)C(C)=O)cc1 [Compound 1E, 3-(4-methoxybenzyl)-2,4-pentanedione] | 4,374 μmole Trolox equivalent/g | very little change | almost completely chelated |  | 
98.6 | 98.1 | 97.7 | COc1cc(CC(C(C)=O)C(C)=O)cc(OC)c1OC [Compound 1F, 3-(3,4,5-trimethoxybenzyl)-2,4-pentanedione] | 6,359 μmole Trolox equivalent/g | very little change | almost completely chelated |  | Stability % Product remaining ([4]; 2 min, 0.5 mg/ml, pH 5): 92%; Stability % Product remaining ([4]; 4 min, 0.5 mg/ml, pH 5): 87%; Stability % Product remaining ([4]; 0.1 h, 0.5 mg/ml, pH 5): 85%; Stability % Product remaining ([4]; 8 min, 0.5 mg/ml, pH 5): 81%; Stability % Product remaining ([4]; 10 min, 0.5 mg/ml, pH 5): 80%

The next lines start with the compound.

SMILES | % Remaining of FL (20 min) [1] [%] | % Remaining of FL (40 min) [1] [%] | % Remaining of FL (80 min) [1] [%] | Antioxidant Power against singlet oxygen [2] | change in fluorescence decay pattern with and without ten-fold excess of CaCl2 (selectivity Cu^2+ over Ca^2+) [3] | Cu^2+ chelation capability, in words [3] | Fe^3+ chelation capability, in words [5] | further results
COc1cc(CC(C(C)=O)C(C)=O)ccc1O [Compound 1M, 3-(3-methoxy-4-hydroxybenzyl)-2,4-pentanedione] |  |  |  | 7,180 μmole Trolox equivalent/g |  |  |  | Stability % Product remaining ([4]; 2 min, 0.5 mg/ml, pH 5): 95%; Stability % Product remaining ([4]; 4 min, 0.5 mg/ml, pH 5): 91%; Stability % Product remaining ([4]; 0.1 h, 0.5 mg/ml, pH 5): 88%; Stability % Product remaining ([4]; 8 min, 0.5 mg/ml, pH 5): 85%; Stability % Product remaining ([4]; 10 min, 0.5 mg/ml, pH 5): 82%; % Remaining of FL (20 min) [5]: 100%; % Remaining of FL (40 min) [5]: 100%; % Remaining of FL (80 min) [5]: 100%
CCOC(=O)C(C)C(Cc1ccc(O)c(OC)c1)C(C)=O (stereo not shown) [Compound 2M, 3-(3-methoxy-4-hydroxybenzyl)-4-ethylester-2-pentanone] |  |  |  |  |  |  |  | % Remaining of FL (20 min) [5]: 99.8%; % Remaining of FL (40 min) [5]: 99.3%; % Remaining of FL (80 min) [5]: 98.5%
Cc1c(O)c(=O)ccn1C [Deferiprone, reference compound] |  |  |  |  |  | moderate chelation capability | performed poorly | Fe^2+ chelation capability, in words ([1]; study 2C): good chelation capability
CC(=O)N(O)CCCCCNC(=O)CCC(=O)N(O)CCCCCNC(=O)CCC(=O)N(O)CCCCCN [Desferal, reference compound] |  |  |  |  |  |  | moderate chelating capabilities | 
O=C(O)CC(NCCNC(CC(=O)O)C(=O)O)C(=O)O (stereo not shown) [EDDS, ethylenediamine-N,N′-disuccinic acid, reference compound] |  |  |  |  |  | poor chelating capabilities |  | chelation of copper, in words ([3]; general statement on applicant's studies in the background): not an effective chelating agent
O=C(O)CN(CCN(CC(=O)O)CC(=O)O)CC(=O)O [EDTA, ethylenediamine tetraacetic acid, reference compound] |  |  |  |  |  | poor chelating capabilities | moderate chelating capabilities | 
Cc1c(C)c2c(c(C)c1O)CC[C@@](C)(CCC[C@H](C)CCC[C@H](C)CCCC(C)C)O2 [α Tocopherol, reference compound] |  |  |  | 2,636 μmole Trolox equivalent/g |  |  |  | Stability % Product remaining ([4]; singlet oxygen environment (lithium molybdate/H2O2), 2 min): 73%; Stability % Product remaining ([4]; singlet oxygen environment (lithium molybdate/H2O2), 4 min): 58%; Stability % Product remaining ([4]; singlet oxygen environment (lithium molybdate/H2O2), 6 min): 47%; Stability % Product remaining ([4]; singlet oxygen environment (lithium molybdate/H2O2), 8 min): 39%; Stability % Product remaining ([4]; singlet oxygen environment (lithium molybdate/H2O2), 10 min): 35%
